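The compound was tested at five concentrations on cells cultured in 96-well plates, with a 48-hour exposure period. Here, GI50 denotes the concentration required for 50% inhibition of growth. Definition used: TGI = concentration required for complete inhibition of growth.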
Assays:
Experiment in all cases: NCI tumour cell line growth inhibition, 48 h
[1] = tested on: SK-OV-3 ovarian
[2] = tested on: LOX IMVI melanoma
[3] = tested on: MDA-MB-231 breast
[4] = tested on: RXF 393 renal
[5] = tested on: BT-549 breast
[6] = tested on: UO-31 renal
[7] = tested on: M14 melanoma
[8] = tested on: CCRF-CEM leukemia
[9] = tested on: SK-MEL-2 melanoma
[10] = tested on: HOP-62 NSCLC
[11] = tested on: OVCAR-3 ovarian
[12] = tested on: MDA-MB-468 breast
[13] = tested on: SW-620 colon
[14] = tested on: NCI-H226 lung
[15] = tested on: DU-145 prostate
[16] = tested on: ACHN renal
[17] = tested on: NCI/ADR-RES ovarian
[18] = tested on: K-562 leukemia
[19] = tested on: CAKI-1 renal
[20] = tested on: PC-3 prostate
[21] = tested on: MOLT-4 leukemia
[22] = tested on: SK-MEL-28 melanoma
[23] = tested on: NCI-H460 lung
[24] = tested on: SF-295 CNS
[25] = tested on: SR leukemia
[26] = tested on: HT29 colon
[27] = tested on: UACC-257 melanoma
[28] = tested on: HCC-2998 colon

**Q.** Which results are given for `COc1cc(OC)c(S(=O)(=O)N(CCCl)CCCl)cc1C(=O)/C=C/c1cc(OC)c(OC)c(OC)c1`?
**A.** GI50 [1]: 3.47 µM; TGI [1]: 13 µM; GI50 [2]: 1.44 µM; TGI [2]: 2.89 µM; GI50 [3]: 3.95 µM; TGI [3]: > 100 µM; GI50 [4]: 1.24 µM; TGI [4]: 2.83 µM; GI50 [5]: 1.37 µM; TGI [5]: 2.92 µM; GI50 [6]: 1.54 µM; TGI [6]: 2.92 µM; GI50 [7]: 2.09 µM; TGI [7]: 5.45 µM; GI50 [8]: 1.69 µM; TGI [8]: > 100 µM; GI50 [9]: 2.06 µM; TGI [9]: 4.65 µM; GI50 [10]: 3.77 µM; TGI [10]: 22.8 µM; GI50 [11]: 2.12 µM; TGI [11]: 6.62 µM; GI50 [12]: 1.52 µM; TGI [12]: 3.66 µM; GI50 [13]: 2.69 µM; TGI [13]: 25.1 µM; GI50 [14]: 2.61 µM; TGI [14]: 8.95 µM; GI50 [15]: 2.71 µM; TGI [15]: 14.8 µM; GI50 [16]: 2.08 µM; TGI [16]: 6.16 µM; GI50 [17]: 2.58 µM; TGI [17]: > 100 µM; GI50 [18]: 1.3 µM; TGI [18]: > 100 µM; GI50 [19]: 2.72 µM; TGI [19]: > 100 µM; GI50 [20]: 3.85 µM; TGI [20]: > 100 µM; GI50 [21]: 2.04 µM; TGI [21]: > 100 µM; GI50 [22]: 1.82 µM; TGI [22]: 3.54 µM; GI50 [23]: 1.95 µM; TGI [23]: 5.08 µM; GI50 [24]: 2.86 µM; TGI [24]: 35.4 µM; GI50 [25]: 0.993 µM; TGI [25]: > 100 µM; GI50 [26]: 2.34 µM; TGI [26]: 5.92 µM; GI50 [27]: 1.66 µM; TGI [27]: 3.89 µM; GI50 [28]: 1.97 µM; TGI [28]: 3.54 µM

Reference: PubChem BioAssay (NCI)
